# Experimental data: patent publication US20240092758A1, “IMIDAZOLO INDAZOLE COMPOUNDS AS JAK INHIBITORS” (Theravance Biopharma R&D IP, LLC, priority 2021, published 2024)
# Tests used:
# JAK2 = JAK2 (Homo sapiens (Human), UniProt O60674); test: Biochemical JAK kinase assay (LanthaScreen), JAK2; conditions: read-out: JAK2 pKi (converted)
# Method in brief: (§1)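 LanthaScreen format: phospho-STAT1 (pTyr701) detected with 2 nM Tb antibody after 10 mM EDTA quench. Kinase step used Km-level ATP and 200 nM STAT1 peptide, 1 h at ambient after 1 h pre-incubation. Inhibition fitted to IC50, reported as pKi.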
# JAK3 = JAK3 (Homo sapiens (Human), UniProt P52333); test: Biochemical JAK kinase assay (LanthaScreen), JAK3; conditions: read-out: JAK3 pKi (converted)
# JAK3, sequence (P52333 whole entry): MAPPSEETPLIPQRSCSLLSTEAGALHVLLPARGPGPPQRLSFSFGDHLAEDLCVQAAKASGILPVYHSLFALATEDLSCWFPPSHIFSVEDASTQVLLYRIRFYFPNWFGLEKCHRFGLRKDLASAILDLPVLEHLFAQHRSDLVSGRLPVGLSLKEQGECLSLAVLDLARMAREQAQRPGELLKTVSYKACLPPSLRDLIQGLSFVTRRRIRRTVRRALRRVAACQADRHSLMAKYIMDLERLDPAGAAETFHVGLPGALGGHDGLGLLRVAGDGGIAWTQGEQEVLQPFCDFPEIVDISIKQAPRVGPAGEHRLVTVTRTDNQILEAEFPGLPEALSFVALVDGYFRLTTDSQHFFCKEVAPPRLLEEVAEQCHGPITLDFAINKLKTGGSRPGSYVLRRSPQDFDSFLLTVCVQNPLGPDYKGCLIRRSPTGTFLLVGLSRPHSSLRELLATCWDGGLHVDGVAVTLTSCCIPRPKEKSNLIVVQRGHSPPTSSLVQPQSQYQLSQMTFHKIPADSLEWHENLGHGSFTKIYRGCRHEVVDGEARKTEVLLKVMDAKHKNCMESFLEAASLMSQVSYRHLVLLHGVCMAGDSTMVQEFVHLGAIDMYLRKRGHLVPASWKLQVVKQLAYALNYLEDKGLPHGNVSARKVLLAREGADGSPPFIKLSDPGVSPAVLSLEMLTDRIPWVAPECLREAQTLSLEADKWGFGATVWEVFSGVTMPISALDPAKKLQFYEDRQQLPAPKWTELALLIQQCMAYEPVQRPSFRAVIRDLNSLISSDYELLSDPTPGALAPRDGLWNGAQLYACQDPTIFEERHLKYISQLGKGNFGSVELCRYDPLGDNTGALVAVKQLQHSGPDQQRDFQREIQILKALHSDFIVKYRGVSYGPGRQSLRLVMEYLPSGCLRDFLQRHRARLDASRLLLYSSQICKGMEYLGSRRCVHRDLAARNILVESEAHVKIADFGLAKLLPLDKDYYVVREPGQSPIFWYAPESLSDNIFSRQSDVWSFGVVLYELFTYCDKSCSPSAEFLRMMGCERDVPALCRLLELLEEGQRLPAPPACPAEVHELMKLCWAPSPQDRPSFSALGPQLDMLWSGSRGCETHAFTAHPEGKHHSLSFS
# Method in brief: as §1
# TYK2 = TYK2 (Homo sapiens (Human), UniProt P29597); test: Biochemical JAK kinase assay (LanthaScreen), Tyk2; conditions: read-out: Tyk2 pKi (converted)
# TYK2, sequence (P29597 whole entry): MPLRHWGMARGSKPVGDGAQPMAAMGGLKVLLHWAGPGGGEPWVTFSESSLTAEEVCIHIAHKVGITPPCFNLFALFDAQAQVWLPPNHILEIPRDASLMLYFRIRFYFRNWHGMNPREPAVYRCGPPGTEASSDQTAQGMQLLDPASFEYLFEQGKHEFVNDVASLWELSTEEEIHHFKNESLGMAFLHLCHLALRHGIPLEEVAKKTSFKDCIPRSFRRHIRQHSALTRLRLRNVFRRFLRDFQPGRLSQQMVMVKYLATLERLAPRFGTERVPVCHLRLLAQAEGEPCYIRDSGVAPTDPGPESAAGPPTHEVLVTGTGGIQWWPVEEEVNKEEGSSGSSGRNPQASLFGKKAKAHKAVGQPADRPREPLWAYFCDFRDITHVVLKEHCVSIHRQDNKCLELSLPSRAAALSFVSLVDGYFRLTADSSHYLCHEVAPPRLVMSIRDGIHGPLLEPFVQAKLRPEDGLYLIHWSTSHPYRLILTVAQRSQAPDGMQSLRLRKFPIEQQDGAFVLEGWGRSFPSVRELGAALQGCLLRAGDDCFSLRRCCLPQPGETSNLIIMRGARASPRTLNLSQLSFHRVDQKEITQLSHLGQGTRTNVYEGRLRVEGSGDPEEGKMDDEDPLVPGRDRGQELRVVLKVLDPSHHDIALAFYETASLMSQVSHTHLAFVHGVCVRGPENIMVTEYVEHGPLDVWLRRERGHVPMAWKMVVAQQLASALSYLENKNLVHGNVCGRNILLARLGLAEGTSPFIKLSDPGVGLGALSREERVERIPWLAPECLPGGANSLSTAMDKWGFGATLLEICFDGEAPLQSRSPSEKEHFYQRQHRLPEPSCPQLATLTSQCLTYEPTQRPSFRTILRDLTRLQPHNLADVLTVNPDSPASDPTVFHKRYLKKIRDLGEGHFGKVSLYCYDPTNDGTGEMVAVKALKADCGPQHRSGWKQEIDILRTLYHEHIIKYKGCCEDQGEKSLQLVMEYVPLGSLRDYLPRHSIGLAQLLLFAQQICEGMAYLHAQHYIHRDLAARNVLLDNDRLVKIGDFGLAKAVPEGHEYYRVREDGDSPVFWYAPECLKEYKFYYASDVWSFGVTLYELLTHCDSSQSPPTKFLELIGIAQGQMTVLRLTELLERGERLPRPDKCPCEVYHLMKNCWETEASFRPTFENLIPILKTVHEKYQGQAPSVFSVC
# Method in brief: as §1
# [1] = system: IL-13 induced STAT6 phosphorylation in BEAS-2B human lung epithelial cells; test: Cellular JAKI potency assay (BEAS-2B); assay type: cell-based; conditions: Homo sapiens, BEAS-2B, BEAS-2B cells, read-out: BEAS2B pIC50 (converted)
# Method in brief: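 BEAS-2B cells were preincubated with compound (0.1% DMSO) in HBSS/HEPES/BSA for 1 h at 37 °C, then stimulated with IL-13 (80 ng/mL before addition) for 30 min. After lysis, pSTAT6 (Tyr641) was quantified by AlphaLISA SureFire; IC50 from a 4-parameter fit of percent inhibition, reported as pIC50.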
# [2] = Pharmacokinetics in plasma and lung in mouse after oral aspiration administration; assay type: in vivo; conditions: male CD1 mice; for Lung Tissue AUC(0-24) / AUC(0-t): 0.2 mg/mL, two 25 μL increments; for Lung Tissue:Plasma AUC ratio: lung AUC to plasma AUC; for AUC(0-t): mouse, inhaled or intranasal, 0.01 mg/mouse, plasma, read-out: Plasma AUC(0-24)
# Method in brief: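 Male CD1 mice given 0.2 mg/mL compound in 20% propylene glycol/pH 4 citrate buffer, two 25 μL increments by oral aspiration into the trachea under isoflurane. Plasma and lung homogenate sampled 0.167–24 hr and measured by LC-MS/MS. Non-compartmental analysis gave AUC(0-inf); lung-to-plasma ratio from lung (μg*hr/g) over plasma (μg*hr/mL) AUC.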
# JAK2, sequence (O60674 whole entry): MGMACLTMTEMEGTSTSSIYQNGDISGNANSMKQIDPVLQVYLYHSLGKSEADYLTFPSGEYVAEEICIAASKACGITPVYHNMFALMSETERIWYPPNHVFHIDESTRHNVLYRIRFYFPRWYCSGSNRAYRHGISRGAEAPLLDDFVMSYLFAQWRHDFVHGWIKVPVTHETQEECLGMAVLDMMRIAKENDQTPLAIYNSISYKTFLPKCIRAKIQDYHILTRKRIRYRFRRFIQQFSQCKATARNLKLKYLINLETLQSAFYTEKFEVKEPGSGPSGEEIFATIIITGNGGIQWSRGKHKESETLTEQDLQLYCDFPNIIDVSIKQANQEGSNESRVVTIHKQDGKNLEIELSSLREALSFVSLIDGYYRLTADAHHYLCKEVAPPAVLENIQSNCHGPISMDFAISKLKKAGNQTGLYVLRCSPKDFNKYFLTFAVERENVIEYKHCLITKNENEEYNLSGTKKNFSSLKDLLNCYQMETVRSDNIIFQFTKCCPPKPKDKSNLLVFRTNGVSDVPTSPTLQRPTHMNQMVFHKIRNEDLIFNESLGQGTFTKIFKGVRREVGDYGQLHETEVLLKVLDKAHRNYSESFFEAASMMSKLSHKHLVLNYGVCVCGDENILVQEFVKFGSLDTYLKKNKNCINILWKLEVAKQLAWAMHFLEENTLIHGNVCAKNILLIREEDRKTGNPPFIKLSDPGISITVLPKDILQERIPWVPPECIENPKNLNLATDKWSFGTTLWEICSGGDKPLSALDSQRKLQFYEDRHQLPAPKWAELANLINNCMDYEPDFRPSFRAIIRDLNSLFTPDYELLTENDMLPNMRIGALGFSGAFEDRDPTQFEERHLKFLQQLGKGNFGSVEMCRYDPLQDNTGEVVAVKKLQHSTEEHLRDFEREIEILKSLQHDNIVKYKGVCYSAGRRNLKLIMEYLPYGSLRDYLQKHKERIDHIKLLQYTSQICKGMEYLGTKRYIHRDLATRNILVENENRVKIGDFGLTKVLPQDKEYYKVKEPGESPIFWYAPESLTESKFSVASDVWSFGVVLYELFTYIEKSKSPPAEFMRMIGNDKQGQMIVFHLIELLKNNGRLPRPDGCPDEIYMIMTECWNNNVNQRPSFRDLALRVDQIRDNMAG
Structure (SMILES),Ki (JAK2) [nM],Ki (JAK3) [nM],Ki (TYK2) [nM],IC50 [1] [nM],Lung Tissue AUC(0-24) [2],Lung Tissue:Plasma AUC ratio [2],AUC(0-t) [2] [ng·h/mL]
"CCc1cc(O)ccc1-c1ccc2c(-c3nc(C4=CCNC4)c[nH]3)n[nH]c2c1F [Compound 1, 4-(3-(4-(2,5-dihydro-1H-pyrrol-3-yl)-1H-imidazol-2-yl)-7-fluoro-1H-indazol-6-yl)-3-ethylphenol]",0.1 to 1,0.1 to 1,1 to 10,3.16 to 10,B (B denotes a value between 50 and 100),C (C denotes a ratio between 100 and 200),500 to 1000
"CCc1cc(O)ccc1-c1ccc2c(-c3nc(C4=CCNCC4)c[nH]3)n[nH]c2c1F [Compound 2, 3-ethyl-4-(7-fluoro-3-(4-(1,2,3,6-tetrahydropyridin-4-yl)-1H-imidazol-2-yl)-1H-indazol-6-yl)phenol]",0.1 to 1,1 to 10,1 to 10,3.16 to 10,B (B denotes a value between 50 and 100),C (C denotes a ratio between 100 and 200),500 to 1000
"CCc1cc(O)ccc1-c1ccc2c(-c3nc(C4=CCNCC4)c[nH]3)n[nH]c2c1 [Compound 3, 3-ethyl-4-(3-(4-(1,2,3,6-tetrahydropyridin-4-yl)-1H-imidazol-2-yl)-1H-indazol-6-yl)phenol]",0.1 to 1,1 to 10,0.1 to 1,3.16 to 10,"A (For the Lung Tissue AUC(0-24), A denotes a value between 100 and 200)",C (C denotes a ratio between 100 and 200),500 to 1000
